Reference: patent US8080529B2, “Macrolides with anti-inflammatory activity” (Glaxo Group Limited, priority 2005, dated 2011)
Read-outs that look alike come from different tables or passages of the source.

Experiments:
Assay type in all cases: cell-based
[1] = system: IL-6; assay: Inhibition of IL-6 production by stimulated human peripheral blood leukocytes in vitro; details: Homo sapiens, Leukocyte, read-out: Percentage of inhibition of IL-6 production
Summary of the method: (§1)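 Compound at 10 or 50 μM, given 2 h ahead of an overnight LPS, PMA or zymosan challenge, was tested on human PBL in RPMI with 10% FCS at 37 °C. Sandwich ELISA quantified supernatant cytokine.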

[2] = system: TNF-α; assay: Inhibition of TNF-α production by stimulated human peripheral blood leukocytes in vitro; details: Homo sapiens, Leukocyte, read-out: Percentage of inhibition of TNF-α production
Summary of the method: as §1

[3] = system: human peripheral blood mononuclear cells (PBMC); assay: Effects on human T-cell proliferation in vitro (3H-thymidine incorporation); details: Homo sapiens, PBMC, read-out: Percentage of inhibition of proliferation of stimulated PBMC
Method: The influence of the various test compounds at two different concentrations (50 μM and 10 μM) on cell proliferation of human peripheral blood mononuclear cells (PBMC) was assessed. […] The cells were pulsed with 1 μCi of ^3H-thymidine (Amersham, USA) per well during the last 18 h of the culture, and were harvested on the 96-well filter (Packard Bioscience, USA) using a multiple cell harvester (Packard, USA). The incorporation of ^3H-thymidine in activated cells were measured using TopCount NXT (Packard, USA). […] The positive control refers to LPS-, PMA- or zymosan-stimulated samples that were not treated with test compounds.

[4] = system: A549; assay: Cytotoxicity assay (MTT), A549 cell line; details: 24 h
Method: (§2) To determine whether the anti-inflammatory activity of the test compounds was due to observed inhibition of cytokine production and inhibition of proliferation in vitro, and was not a consequence of cellular cytotoxicity, measurement of succinate dehydrogenase activity in living cells was performed. Cells were cultured for 24 h in RPM medium as described above at 37° C. the presence of the test compounds at concentrations of 50 μM and 12.5 μM. MTT [3-(4,5-dimethylthiazole-2-yl)-2,5-diphenyl tetrazolium bromide] (Promega, USA), a detection reagent, was then added and the cultures were incubated for 0.5-2 h. The amount of MTT-Formazan produced was determined using a spectrophotometer at 490 nm (Mosmann, J. Immunol. Methods, 1983, 65: 55-63).
(§3) The percentage of inhibition of cell growth was calculated using the following formula: % inhibition of cell growth=[…].

[5] = system: Hep G2; assay: Cytotoxicity assay (MTT), Hep G2 cell line; details: 24 h
Method: as §2, §3

[6] = system: IL-1α; assay: Inhibition of IL-1 production by stimulated human peripheral blood leukocytes in vitro; details: Homo sapiens, Leukocyte, read-out: Percentage of inhibition of IL-1α production
[7] = system: IL-8; assay: Inhibition of IL-8 production by stimulated human peripheral blood leukocytes in vitro; details: Homo sapiens, Leukocyte, read-out: Percentage of inhibition of IL-8 production
Summary of the method: as §1

Structure (SMILES) | inhibition at 10 µM ([1]; LPS-stimulated PBL) [%] | inhibition at 10 µM ([1]; PMA-stimulated PBL) [%] | inhibition at 10 µM ([1]; zymosan-stimulated PBL) [%] | inhibition at 50 µM ([1]; LPS-stimulated PBL) [%] | inhibition at 50 µM ([1]; PMA-stimulated PBL) [%] | inhibition at 50 µM ([1]; zymosan-stimulated PBL) [%] | inhibition at 10 µM ([2]; LPS-stimulated PBL) [%] | inhibition at 10 µM ([2]; PMA-stimulated PBL) [%] | inhibition at 10 µM ([2]; zymosan-stimulated PBL) [%] | inhibition at 50 µM ([2]; LPS-stimulated PBL) [%] | inhibition at 50 µM ([2]; PMA-stimulated PBL) [%] | inhibition at 50 µM ([2]; zymosan-stimulated PBL) [%] | Percentage of inhibition of cell growth ([4]; 12.5 μM) [%] | Percentage of inhibition of cell growth ([4]; 50 μM) [%] | Percentage of inhibition of cell growth ([5]; 12.5 μM) [%] | Percentage of inhibition of cell growth ([5]; 50 μM) [%] | inhibition at 10 µM ([6]; LPS-stimulated PBL) [%] | inhibition at 10 µM ([6]; PMA-stimulated PBL) [%] | inhibition at 10 µM ([6]; zymosan-stimulated PBL) [%] | inhibition at 50 µM ([6]; LPS-stimulated PBL) [%] | other results
CC[C@H]1OC(=O)[C@H](C)[C@@H](O[C@H]2C[C@@](C)(OC)[C@@H](OC(=O)CCN(CC)CC)[C@H](C)O2)[C@H](C)[C@@H](O[C@@H]2O[C@H](C)C[C@H](N(C)C)[C@H]2O)[C@](C)(OC)C[C@@H](C)C(=O)[C@H](C)[C@H]2N(C)C(=O)O[C@]12C [Example 10, 11,12-(N-Methyl-carbamate)-11,12-dideoxy-4-O-(3-diethylaminopropionyl)-6-O-methyl-erythromycin A] | 14 | 12 | 19 | 71 | 18 | 39 | 49 | 41 | 14 | 86 | 62 | 72 | 12 | 6 | 0 | 5 | 44 | 30 | 48 | 41 | inhibition at 10 µM ([3]; PHA): 71%; inhibition at 50 µM ([3]; PHA): 98%; inhibition at 10 µM ([3]; PMA + iono.): 3%; inhibition at 50 µM ([3]; PMA + iono.): 100%; inhibition at 50 µM ([6]; PMA-stimulated PBL): 0%; inhibition at 50 µM ([6]; zymosan-stimulated PBL): 49%; inhibition at 10 µM ([7]; LPS-stimulated PBL): 27%; inhibition at 10 µM ([7]; PMA-stimulated PBL): 0%; inhibition at 10 µM ([7]; zymosan-stimulated PBL): 28%; inhibition at 50 µM ([7]; LPS-stimulated PBL): 52%; inhibition at 50 µM ([7]; PMA-stimulated PBL): 42%; inhibition at 50 µM ([7]; zymosan-stimulated PBL): 36%
CC[C@H]1OC(=O)[C@H](C)[C@@H](O[C@H]2C[C@@](C)(OC)[C@@H](OC(=O)CCN3CCCCCC3)[C@H](C)O2)[C@H](C)[C@@H](O[C@@H]2O[C@H](C)C[C@H](N(C)C)[C@H]2O)[C@](C)(OC)C[C@@H](C)C(=O)N[C@H](C)[C@@H](O)[C@]1(C)O [Example 41] | 25 | 59 | 36 | 92 | 79 | 100 | 39 | 30 | 27 | 95 | 70 | 99 | 1 | 0 | 7 | 3 | 79 | 52 | 80 | 84 | inhibition at 50 µM ([6]; PMA-stimulated PBL): 100%; inhibition at 50 µM ([6]; zymosan-stimulated PBL): 100%; inhibition at 10 µM ([7]; LPS-stimulated PBL): 29%; inhibition at 10 µM ([7]; PMA-stimulated PBL): 10%; inhibition at 10 µM ([7]; zymosan-stimulated PBL): 19%; inhibition at 50 µM ([7]; LPS-stimulated PBL): 87%; inhibition at 50 µM ([7]; PMA-stimulated PBL): 42%; inhibition at 50 µM ([7]; zymosan-stimulated PBL): 63%
CC[C@H]1OC(=O)[C@H](C)[C@@H](OC2C[C@@](C)(OC)[C@@H](OC(=O)CCN3CCNCC3)[C@H](C)O2)[C@H](C)[C@@H](OC2O[C@H](C)C[C@H](N(C)C)[C@H]2O)[C@](C)(OC)C[C@@H](C)C(=O)[C@H](C)[C@@H](O)[C@]1(C)O (some centres unmarked) [Example 50, 4″-O-(3-piperazin-1-yl-propionyl)-6-O-methylerithromycin A] | 0 | 0 | 52 | 54 | 23 | 96 | 10 | 0 | 36 | 100 | 100 | 98 | 10 | 10 | 0 | 8 | 19 | 0 | 81 | 23 | inhibition at 50 µM ([6]; PMA-stimulated PBL): 44%; inhibition at 50 µM ([6]; zymosan-stimulated PBL): 69%; inhibition at 10 µM ([7]; LPS-stimulated PBL): 0%; inhibition at 10 µM ([7]; PMA-stimulated PBL): 0%; inhibition at 10 µM ([7]; zymosan-stimulated PBL): 0%; inhibition at 50 µM ([7]; LPS-stimulated PBL): 61%; inhibition at 50 µM ([7]; PMA-stimulated PBL): 100%; inhibition at 50 µM ([7]; zymosan-stimulated PBL): 70%
C=CC(=O)OC1[C@H](C)O[C@@H](O[C@H]2[C@H](C)[C@@H](O[C@@H]3O[C@H](C)C[C@H](NC)[C@H]3O)[C@](C)(OC)C[C@@H](C)C(=O)N[C@H](C)[C@@H](O)[C@](C)(O)[C@@H](CC)OC(=O)[C@@H]2C)C[C@@]1(C)OC (some centres unmarked) [Example 53, 3′-N-Demethyl-4″-O-acryloyl-6-O-methyl-9a-aza-9a-homoerythromycin A] | 20 | 66 | 68 | 99 | 95 | 100 | 28 | 82 | 64 | 100 | 100 | 100 | 9 | 12 | 0 | 2 | 83 | 92 | 92 | 95 | inhibition at 50 µM ([6]; PMA-stimulated PBL): 99%; inhibition at 50 µM ([6]; zymosan-stimulated PBL): 100%; inhibition at 10 µM ([7]; LPS-stimulated PBL): 9%; inhibition at 10 µM ([7]; PMA-stimulated PBL): 30%; inhibition at 10 µM ([7]; zymosan-stimulated PBL): 19%; inhibition at 50 µM ([7]; LPS-stimulated PBL): 100%; inhibition at 50 µM ([7]; PMA-stimulated PBL): 63%; inhibition at 50 µM ([7]; zymosan-stimulated PBL): 92%
